{"source": "patent US11707503B2", "about": "“Modulators of complement activity” (Ra Pharmaceuticals, Inc., priority 2015, dated 2023)", "note": "Starred links: 1 amine or outer side, 2 acyl side, 3 side chain; linkers in the order of their positions; H or OH if unused. Positions of bridges follow the written chain, without caps; N, C: chain ends. Non-standard residues stand in square brackets, D forms with d. Residues, ends and D or L forms follow the SMILES beside them. Ala(1H-tetrazol-5-yl) = N[C@@H](Cc1nnn[nH]1)C(=O)O; Trp(7-aza) = N[C@@H](Cc1c[nH]c2ncccc12)C(=O)O; hPhe(3-Cl) = N[C@@H](CCc1cccc(Cl)c1)C(=O)O; 2Nal = N[C@@H](Cc1ccc2ccccc2c1)C(=O)O; mXylylene = c1cc(C[*:1])cc(C[*:2])c1; Chg = N[C@H](C(=O)O)C1CCCCC1; Tle = CC(C)(C)[C@H](N)C(=O)O; Ac5c = NC1(C(=O)O)CCCC1; Nva = CCC[C@H](N)C(=O)O; Thp = NC1(C(=O)O)CCOCC1"}
{"target": "C5 (Homo sapiens, UniProt P01031)", "sequence (P01031 678-1676 limits assumed)": "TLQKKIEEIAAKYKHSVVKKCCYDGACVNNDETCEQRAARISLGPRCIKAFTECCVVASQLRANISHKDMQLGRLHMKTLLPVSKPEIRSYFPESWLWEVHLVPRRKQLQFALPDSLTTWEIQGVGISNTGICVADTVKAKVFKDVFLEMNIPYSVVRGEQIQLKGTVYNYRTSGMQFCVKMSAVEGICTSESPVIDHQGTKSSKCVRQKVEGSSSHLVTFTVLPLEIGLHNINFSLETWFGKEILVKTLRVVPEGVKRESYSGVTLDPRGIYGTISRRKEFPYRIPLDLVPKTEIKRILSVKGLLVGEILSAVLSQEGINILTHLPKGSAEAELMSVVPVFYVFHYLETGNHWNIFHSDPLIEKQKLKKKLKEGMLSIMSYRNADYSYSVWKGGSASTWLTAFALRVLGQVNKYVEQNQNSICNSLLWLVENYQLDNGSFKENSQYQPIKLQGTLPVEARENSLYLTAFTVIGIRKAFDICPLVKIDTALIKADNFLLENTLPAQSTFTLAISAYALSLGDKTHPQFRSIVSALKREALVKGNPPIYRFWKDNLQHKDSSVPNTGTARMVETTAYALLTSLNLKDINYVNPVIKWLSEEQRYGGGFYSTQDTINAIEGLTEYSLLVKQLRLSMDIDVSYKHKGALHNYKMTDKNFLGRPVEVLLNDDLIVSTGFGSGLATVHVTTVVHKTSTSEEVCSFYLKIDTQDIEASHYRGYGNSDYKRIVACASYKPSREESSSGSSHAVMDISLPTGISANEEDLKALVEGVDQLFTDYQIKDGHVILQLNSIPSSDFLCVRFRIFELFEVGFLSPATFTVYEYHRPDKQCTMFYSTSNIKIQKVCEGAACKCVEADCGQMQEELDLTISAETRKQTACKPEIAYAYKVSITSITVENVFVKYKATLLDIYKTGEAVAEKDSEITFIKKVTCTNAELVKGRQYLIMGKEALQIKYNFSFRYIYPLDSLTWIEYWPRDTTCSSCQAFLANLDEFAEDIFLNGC", "sequence (P01031 19-673 limits assumed)": "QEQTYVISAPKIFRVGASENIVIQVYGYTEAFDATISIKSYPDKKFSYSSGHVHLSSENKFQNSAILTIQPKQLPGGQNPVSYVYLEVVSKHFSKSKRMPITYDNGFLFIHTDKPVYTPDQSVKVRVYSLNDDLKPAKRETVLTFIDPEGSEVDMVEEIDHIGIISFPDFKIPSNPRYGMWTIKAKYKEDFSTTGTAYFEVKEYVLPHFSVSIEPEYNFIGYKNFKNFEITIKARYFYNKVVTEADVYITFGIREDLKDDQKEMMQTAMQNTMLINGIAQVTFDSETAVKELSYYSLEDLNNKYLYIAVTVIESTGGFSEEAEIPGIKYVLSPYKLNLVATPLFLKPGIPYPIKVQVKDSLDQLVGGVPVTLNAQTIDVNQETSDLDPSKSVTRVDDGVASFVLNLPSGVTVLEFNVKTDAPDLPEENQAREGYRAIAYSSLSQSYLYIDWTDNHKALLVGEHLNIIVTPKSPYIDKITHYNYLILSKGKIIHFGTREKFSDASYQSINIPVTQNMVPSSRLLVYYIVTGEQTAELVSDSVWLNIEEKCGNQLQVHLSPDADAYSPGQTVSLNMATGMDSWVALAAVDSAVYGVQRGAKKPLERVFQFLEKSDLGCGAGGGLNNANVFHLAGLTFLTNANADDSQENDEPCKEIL", "test": "Alternative human hemolysis assay using C5 depleted sera and purified human C5", "type": "cell-based", "parameters": "purchased Complement Technology, Tyler, Tex", "conditions": "1.5% human C5 depleted sera, 0.5 nM purified human C5", "units": {"IC50": "nM"}}
{"smiles": "CCC[C@H](NC(=O)[C@@H](NC(=O)[C@@H]1CCCN1C(=O)[C@H](Cc1c[nH]c2ccccc12)NC(=O)[C@H](CCC(=O)O)NC(=O)[C@H](Cc1c[nH]c2ncccc12)NC(=O)[C@H](Cc1ccc(O)cc1)NC(=O)[C@@H](NC(=O)[C@H](CC(=O)O)NC(=O)[C@@H]1CSCc2cccc(c2)CSC[C@H](NC(C)=O)C(=O)N[C@@H](C(C)C)C(=O)N[C@@H](CCC(=O)O)C(=O)N[C@@H](CCCNC(=N)N)C(=O)N[C@@H](Cc2ccccc2)C(=O)N1)C(C)(C)C)C1CCCCC1)C(=O)O", "note": "[Compound R3177, [mXylyl(1,6)]Ac-C-V-E-R-F-C-D-Tbg-Y-azaTrp-E-W-P-Chg-Nvl] (Ac-CVERFCD[Tle]Y[Trp(7-aza)]EWP[Chg][Nva]-OH; linker 1-6 via mXylylene)", "IC50": 12}
{"target": "C5 (Homo sapiens, UniProt P01031)", "test": "Alternative human hemolysis assay using C5 depleted sera and purified human C5", "type": "cell-based", "parameters": "purchased Complement Technology, Tyler, Tex", "conditions": "[…] human C5 depleted sera, 0.5 nM purified human C5", "units": {"IC50": "nM"}}
{"smiles": "CCC[C@H](NC(=O)[C@@H](NC(=O)[C@@H]1CCCN1C(=O)[C@H](Cc1ccc(O)cc1)NC(=O)[C@H](CCC(=O)O)NC(=O)[C@H](Cc1c[nH]c2ncccc12)NC(=O)[C@H](Cc1ccc(O)cc1)NC(=O)[C@@H](NC(=O)[C@H](Cc1nnn[nH]1)NC(=O)[C@@H]1CC(=O)NCCCC[C@H](NC(C)=O)C(=O)N[C@@H](C(C)C)C(=O)N[C@@H](CCC(=O)O)C(=O)N[C@@H](CCCNC(=N)N)C(=O)N[C@@H](Cc2ccccc2)C(=O)N1)C(C)(C)C)C1CCCCC1)C(=O)O", "note": "[Compound R3174, [cyclo(1,6)]Ac-K-V-E-R-F-D-Asp(T)-Tbg-Y-azaTrp-E-Y-P-Chg-Nvl] (Ac-KVERFD[Ala(1H-tetrazol-5-yl)][Tle]Y[Trp(7-aza)]EYP[Chg][Nva]-OH; lactam 1-6; C-terminus assumed)", "IC50": 2.3}
{"smiles": "CCC[C@H](NC(=O)[C@@H](NC(=O)[C@@H]1CCCN1C(=O)[C@H](CCc1cccc(Cl)c1)NC(=O)[C@H](CCC(=O)O)NC(=O)[C@H](Cc1c[nH]c2ncccc12)NC(=O)[C@H](Cc1ccc(O)cc1)NC(=O)[C@@H](NC(=O)[C@H](CC(=O)O)NC(=O)[C@@H]1CSCc2cccc(c2)CSC[C@H](NC(C)=O)C(=O)N[C@@H](C(C)C)C(=O)N[C@@H](CCC(=O)O)C(=O)N[C@@H](CCCNC(=N)N)C(=O)N[C@@H](Cc2ccccc2)C(=O)N1)C(C)(C)C)C1CCCCC1)C(=O)O", "note": "[Compound R3179, [mXylyl(1,6)]Ac-C-V-E-R-F-C-D-Tbg-Y-azaTrp-E-(m-Cl-homo)Phe-P-Chg-Nvl] (Ac-CVERFCD[Tle]Y[Trp(7-aza)]E[hPhe(3-Cl)]P[Chg][Nva]-OH; linker 1-6 via mXylylene; C-terminus assumed)", "IC50": 83}
{"smiles": "CCC[C@H](NC(=O)[C@@H](NC(=O)[C@@H]1CCCN1C(=O)[C@H](Cc1ccc2ccccc2c1)NC(=O)[C@H](CCC(=O)O)NC(=O)[C@H](Cc1c[nH]c2ncccc12)NC(=O)[C@H](Cc1ccc(O)cc1)NC(=O)[C@@H](NC(=O)[C@H](CC(=O)O)NC(=O)[C@@H]1CSCc2cccc(c2)CSC[C@H](NC(C)=O)C(=O)N[C@@H](C(C)C)C(=O)N[C@@H](CCC(=O)O)C(=O)N[C@@H](CCCNC(=N)N)C(=O)N[C@@H](Cc2ccccc2)C(=O)N1)C(C)(C)C)C1CCCCC1)C(=O)O", "note": "[Compound R3180, [mXylyl(1,6)]Ac-C-V-E-R-F-C-D-Tbg-Y-azaTrp-E-2Nal-P-Chg-Nvl] (Ac-CVERFCD[Tle]Y[Trp(7-aza)]E[2Nal]P[Chg][Nva]-OH; linker 1-6 via mXylylene; C-terminus assumed)", "IC50": 29}
{"smiles": "CCC[C@H](NC(=O)[C@@H](NC(=O)[C@@H]1CCCN1C(=O)[C@H](Cc1ccc(O)cc1)NC(=O)[C@H](CCC(=O)O)NC(=O)[C@H](Cc1cccc(CN)c1)NC(=O)[C@H](Cc1ccc(O)cc1)NC(=O)[C@@H](NC(=O)[C@H](CC(=O)O)NC(=O)[C@@H]1CSCc2cccc(c2)CSC[C@H](NC(C)=O)C(=O)N[C@@H](C(C)C)C(=O)N[C@@H](CCC(=O)O)C(=O)N[C@@H](CCCNC(=N)N)C(=O)N[C@@H](Cc2ccccc2)C(=O)N1)C(C)(C)C)C1CCCCC1)C(=O)O", "note": "[Compound R3181, [mXylyl(1,6)]Ac-C-V-E-R-F-C-D-Tbg-Y-(3-aminomethyl)Phe-E-Y-P-Chg-Nvl]", "IC50": 1500}
{"smiles": "CCC[C@H](NC(=O)[C@@H](NC(=O)[C@@H]1CCCN1C(=O)[C@H](Cc1ccc(O)cc1)NC(=O)[C@H](CCC(=O)O)NC(=O)[C@H](Cc1c[nH]c2ncccc12)NC(=O)[C@H](Cc1ccc(O)cc1)NC(=O)[C@@H](NC(=O)C1(NC(=O)[C@@H]2CSCc3cccc(c3)CSC[C@H](NC(C)=O)C(=O)N[C@@H](C(C)C)C(=O)N[C@@H](CCC(=O)O)C(=O)N[C@@H](CCCNC(=N)N)C(=O)N[C@@H](Cc3ccccc3)C(=O)N2)CCCC1)C(C)(C)C)C1CCCCC1)C(=O)O", "note": "[Compound R3185, [mXylyl(1,6)]Ac-C-V-E-R-F-C-Cle-Tbg-Y-azaTrp-E-Y-P-Chg-Nvl] (Ac-CVERFC[Ac5c][Tle]Y[Trp(7-aza)]EYP[Chg][Nva]-OH; linker 1-6 via mXylylene; C-terminus assumed)", "IC50": 12.5}
{"smiles": "CCC[C@H](NC(=O)[C@@H](NC(=O)[C@@H]1CCCN1C(=O)[C@H](Cc1ccc(O)cc1)NC(=O)[C@H](CCC(=O)O)NC(=O)[C@H](Cc1c[nH]c2ncccc12)NC(=O)[C@H](Cc1ccc(O)cc1)NC(=O)[C@@H](NC(=O)C1(NC(=O)[C@@H]2CSCc3cccc(c3)CSC[C@H](NC(C)=O)C(=O)N[C@@H](C(C)C)C(=O)N[C@@H](CCC(=O)O)C(=O)N[C@@H](CCCNC(=N)N)C(=O)N[C@@H](Cc3ccccc3)C(=O)N2)CCOCC1)C(C)(C)C)C1CCCCC1)C(=O)O", "note": "[Compound R3186, [mXylyl(1,6)]Ac-C-V-E-R-F-C-(Ac-Pyran)-Tbg-Y-azaTrp-E-Y-P-Chg-Nvl] (Ac-CVERFC[Thp][Tle]Y[Trp(7-aza)]EYP[Chg][Nva]-OH; linker 1-6 via mXylylene; C-terminus assumed)", "IC50": 18}
{"smiles": "CCCCCCCCCCCCCCCC(=O)NCCCC[C@H](NC(=O)[C@@H](NC(=O)[C@@H]1CCCN1C(=O)[C@H](Cc1ccc(O)cc1)NC(=O)[C@H](CCC(=O)O)NC(=O)[C@H](Cc1c[nH]c2ncccc12)NC(=O)[C@H](Cc1ccc(O)cc1)NC(=O)[C@@H](NC(=O)[C@H](CC(=O)O)NC(=O)[C@@H]1CSCc2cccc(c2)CSC[C@H](NC(C)=O)C(=O)N[C@@H](C)C(=O)N[C@@H](CCC(=O)O)C(=O)N[C@@H](CCCNC(=N)N)C(=O)N[C@@H](Cc2ccccc2)C(=O)N1)C(C)(C)C)c1ccccc1)C(=O)O", "note": "[Compound R3189, [mXylyl(1,6)]Ac-C-A-E-R-F-C-D-Tbg-Y-azaTrp-E-Y-P-Phg-(Lys-C16)]", "IC50": 81.5}
{"smiles": "CCCCCCCCCCCCCCCC(=O)NCCCC[C@H](NC(=O)[C@@H](NC(=O)[C@@H]1CCCN1C(=O)[C@H](Cc1ccc(O)cc1)NC(=O)[C@H](CCC(=O)O)NC(=O)[C@H](Cc1c[nH]c2ccccc12)NC(=O)[C@H](Cc1ccc(O)cc1)NC(=O)[C@@H](NC(=O)[C@H](CC(=O)O)N(C)C(=O)[C@@H]1CC(=O)NCCCC[C@H](NC(C)=O)C(=O)N[C@@H](C(C)C)C(=O)N[C@@H](CCC(=O)O)C(=O)N[C@@H](CCCNC(=N)N)C(=O)N[C@@H](Cc2ccccc2)C(=O)N1)C(C)(C)C)C1CCCCC1)C(=O)O", "note": "[Compound R3195, [cyclo(1,6)]Ac-K-V-E-R-F-D-(N—Me)D-Tbg-Y-W-E-Y-P-Chg-(Lys-C16)]", "IC50": 62.5}
{"smiles": "CC(=O)N[C@H]1CCCCNC(=O)C[C@@H](C(=O)N(C)[C@@H](CC(=O)O)C(=O)N[C@H](C(=O)N[C@@H](Cc2ccc(O)cc2)C(=O)N[C@@H](Cc2c[nH]c3ccccc23)C(=O)N[C@@H](CCC(=O)O)C(=O)N[C@@H](Cc2ccc(O)cc2)C(=O)N2CCC[C@H]2C(=O)N[C@H](C(=O)N[C@@H](CCCCN)C(=O)O)C2CCCCC2)C(C)(C)C)NC(=O)[C@H](Cc2ccccc2)NC(=O)[C@H](CCCNC(=N)N)NC(=O)[C@H](CCC(=O)O)NC(=O)[C@H](C(C)C)NC1=O", "note": "[Compound R3196, [cyclo(1,6)]Ac-K-V-E-R-F-D-(N—Me)D-Tbg-Y-W-E-Y-P-Chg-K]", "IC50": 3}
{"smiles": "CC(=O)N[C@H]1CCCCNC(=O)C[C@@H](C(=O)N(C)[C@@H](CC(=O)O)C(=O)N[C@H](C(=O)N[C@@H](Cc2ccc(O)cc2)C(=O)N[C@@H](Cc2c[nH]c3ccccc23)C(=O)N[C@@H](CCC(=O)O)C(=O)N[C@@H](Cc2ccc(O)cc2)C(=O)N2CCC[C@H]2C(=O)N[C@H](C(=O)N[C@@H](CCCCNC(CC(C)C)=C2C(=O)CC(C)(C)CC2=O)C(=O)O)C2CCCCC2)C(C)(C)C)NC(=O)[C@H](Cc2ccccc2)NC(=O)[C@H](CCCNC(=N)N)NC(=O)[C@H](CCC(=O)O)NC(=O)[C@H](C(C)C)NC1=O", "note": "[Compound R3197, [cyclo(1,6)]Ac-K-V-E-R-F-D-(N—Me)D-Tbg-Y-W-E-Y-P-Chg-K14]", "IC50": 4}
{"smiles": "CCCCCCCCCCCCCCCC(=O)NCCCC[C@H](NC(=O)[C@@H](NC(=O)[C@@H]1CCCN1C(=O)[C@H](Cc1ccc(O)cc1)NC(=O)[C@H](CCC(=O)O)NC(=O)[C@H](Cc1c[nH]c2ncccc12)NC(=O)[C@H](Cc1ccc(O)cc1)NC(=O)[C@@H](NC(=O)[C@H](CC(=O)O)N(C)C(=O)[C@@H]1CSSCCC(=O)N[C@H](C)C(=O)N[C@@H](CCC(=O)O)C(=O)N[C@@H](CCCNC(=N)N)C(=O)N[C@@H](Cc2ccccc2)C(=O)N1)C(C)(C)C)C1CCCCC1)C(=O)O", "note": "[Compound R3199, [cyclo(1,6)](desamino)C-(D-Ala)-E-R-F-C-(N—Me)D-Tbg-Y-azaTrp-E-Y-P-Chg-(Lys-C16)]", "IC50": 112}
{"smiles": "CCCCCCCCCCCCCCCC(=O)NCCCC[C@H](NC(=O)C(C)(C)NC(=O)[C@@H]1CCCN1C(=O)[C@H](Cc1ccc(O)cc1)NC(=O)[C@H](CCC(=O)O)NC(=O)[C@H](Cc1c[nH]c2ncccc12)NC(=O)[C@H](Cc1ccc(O)cc1)NC(=O)[C@@H](NC(=O)[C@H](CC(=O)O)N(C)C(=O)[C@@H]1CC(=O)NCCCC[C@H](NC(C)=O)C(=O)N[C@@H](C(C)C)C(=O)N[C@@H](CCC(=O)O)C(=O)N[C@@H](CCCNC(=N)N)C(=O)N[C@@H](Cc2ccccc2)C(=O)N1)C(C)(C)C)C(=O)O", "note": "[Compound R3200, [cyclo(1,6)]Ac-K-V-E-R-F-D-(N—Me)D-Tbg-Y-azaTrp-E-Y-P-Aib-(Lys-C16)]", "IC50": 88.5}
